US20120156333A1, “STABILIZED BETA CRYPTOXANTHIN-CONTAINING WATER AND THE USE THEREOF” (ARKRAY, INC., priority 2010, published 2012)

Columns and labels:
[1] = compound of structural formula (1); stated as known; cited from earlier work
[2] = β cryptoxanthin stabilizing test, Example 2B (water from powder, varied β cryptoxanthin concentration, stored at 45° C.); format: physicochemical
Description: The prepared powder derived from Citrus unshiu and water were mixed. Thus, β cryptoxanthin-containing waters were prepared. In the mixing, concentrations of the β cryptoxanthin were set to predetermined parts by mass with respect to 100 parts by mass of a combination of the water and components contained in the water. The predetermined parts by mass were 0.0005, 0.0010, 0.0022, 0.0031, 0.0060, and 0.0079 parts by mass. Thus, six types of β cryptoxanthin-containing waters each having a different concentration of the β cryptoxanthin were prepared. Each of the β cryptoxanthin-containing waters was sufficiently stirred. Thereafter 90 g of the resultant β cryptoxanthin-containing water was filled in an aluminum pouch, which was then sterilized under the condition at 85° C. for 30 minutes. Six types of the β cryptoxanthin-containing waters of the example were stored at 45° C. for one month. Sampling was conducted on a storage start date and after one month from the storage start date. The respective amounts of β cryptoxanthin in samples were measured by HPLC in the same manner as in Example 1B. Then, assuming that the amount of β cryptoxanthin on the storage start date was 100%, residual ratios of β cryptoxanthin were determined.

[3] = β cryptoxanthin stabilizing test, Example 1B (water from paste, varied β cryptoxanthin concentration, stored at 45° C.); format: physicochemical
Description: The prepared paste derived from Citrus unshiu and water were mixed. Thus, β cryptoxanthin-containing waters were prepared. In the mixing, concentrations of the β cryptoxanthin were set to predetermined parts by mass with respect to 100 parts by mass of a combination of the water and components contained in the water. The predetermined parts by mass were 0.0031, 0.0044, 0.0062, 0.0086, 0.0176, and 0.0244 parts by mass. Thus, six types of β cryptoxanthin-containing waters each having a different concentration of the β cryptoxanthin were prepared. Each of the β cryptoxanthin-containing waters was sufficiently stirred. Thereafter 90 g of the resultant β cryptoxanthin-containing water was filled in an aluminum pouch, which was then sterilized under the condition at 85° C. for 30 minutes. As a comparative example, two types of β cryptoxanthin-containing waters were prepared in the same manner as described above except that the concentrations of the β cryptoxanthin were set to 0.0011 and 0.0016 parts by mass.
Six types of the β cryptoxanthin-containing waters of the example and two types of β cryptoxanthin-containing waters of the comparative example were stored at 45° C. for one month. Sampling was conducted on a storage start date and after one month from the storage start date. The respective amounts of β cryptoxanthin in samples were measured by HPLC as shown below. Then, assuming that the amount of β cryptoxanthin on the storage start date was 100%, residual ratios of β cryptoxanthin were determined.
The samples were treated at 70° C. for 30 minutes under alkaline conditions before being subjected to HPLC. By this treatment, β cryptoxanthin in the samples was saponified and was converted to a free form. After the treatment, the samples were subjected to a liquid-liquid extraction and were then concentrated. Concentrated samples thus obtained were used as samples for HPLC.
In the measurements of the amounts of β cryptoxanthin by HPLC, a HPLC system to which a column (J′sphere ODS-M80 (product name) with 250×4.6 mm I.D, produced by YMC Co., Ltd.) had been connected was used, and absorbances at 455 nm were measured by a UV detector (L-4200H (product name), produced by Hitachi Ltd.). Conditions of the column were as follows. • Mobile phase: acetonitrile/tetrahydrofuran (volume ratio: 95/5) containing 0.1% acetic acid and 50 ppm of α-tocopherol • Flow rate: 1.0 mL/minute • Column temperature: 55° C.

[4] = Storage stability at 20° C. and 25° C. calculated by Arrhenius equation, Example 4B; format: physicochemical; details: for possible storage period in a stable state: β cryptoxanthin-containing waters of Examples 1B, 2B, and 3B
Description: With respect to the β cryptoxanthin-containing waters prepared in Examples 1B, 2B, and 3B, storage stability at 20° C. and 25° C. was determined. Determination of the storage stability was performed in the same manner as in Example 4A.

[5] = β cryptoxanthin stabilizing test, Example 2A (water from Citrus unshiu powder with additive L-ascorbic acid, stored at 40° C.); format: physicochemical; details: 0.0022 parts by mass β cryptoxanthin (powder) in water
Description: The prepared powder derived from Citrus unshiu and water were mixed. Thus, a mixed solution was prepared. The mixing was conducted so that a mass ratio between β cryptoxanthin contained in the powder and the mixed water became 1 mg:50 g (0.0022 parts by mass of β cryptoxanthin with respect to 100 parts by mass of finally obtained β cryptoxanthin-containing water). Vitamin C (L-ascorbic acid) was added to the mixed solution, which was then mixed by stirring. Thus, β cryptoxanthin-containing waters were prepared. The total amounts of L-ascorbic acid in the respective β cryptoxanthin-containing waters were set to 0.005, 0.01, 0.02, 0.1, and 0.2 parts by mass with respect to 100 parts by mass of entire β cryptoxanthin-containing water by adding vitamin C. 50 g of five types of the β cryptoxanthin-containing waters were filled in the respective brown bottles. Thereafter, the brown bottles were subjected to a heat sterilization treatment under the condition at 90° C. for 30 minutes, which were then stored at 40° C. Sampling was conducted on a storage start date and after two months from the same. The respective amounts of β cryptoxanthin in samples were measured in the same manner as in Example 1A. Then, assuming that the amount of β cryptoxanthin on the storage start date was 100%, residual ratios of β cryptoxanthin were determined.

CC1=C(/C=C/C(C)=C/C=C/C(C)=C/C=C/C=C(C)/C=C/C=C(C)/C=C/C2=C(C)C[C@@H](O)CC2(C)C)C(C)(C)CCC1 [β cryptoxanthin]
solubility in water [1]: poorly soluble in water | Residual ratio of β cryptoxanthin Storage for one month (%) ([2]; β cryptoxanthin 0.0005 parts by mass (powder) in water): 5.3% | Residual ratio of β cryptoxanthin Storage for one month (%) ([2]; β cryptoxanthin 0.0010 parts by mass (powder) in water): 45.6% | Residual ratio of β cryptoxanthin Storage for one month (%) ([2]; β cryptoxanthin 0.0022 parts by mass (powder) in water): 75.5% | Residual ratio of β cryptoxanthin Storage for one month (%) ([2]; β cryptoxanthin 0.0031 parts by mass (powder) in water): 82.4% | Residual ratio of β cryptoxanthin Storage for one month (%) ([2]; β cryptoxanthin 0.0060 parts by mass (powder) in water): 97.9% | Residual ratio of β cryptoxanthin Storage for one month (%) ([2]; β cryptoxanthin 0.0079 parts by mass (powder) in water): 101.1% | Residual ratio of β cryptoxanthin Storage for one month (%) ([3]; Comparative Example, β cryptoxanthin 0.0011 parts by mass (paste) in water): 52.5% | Residual ratio of β cryptoxanthin Storage for one month (%) ([3]; Comparative Example, β cryptoxanthin 0.0016 parts by mass (paste) in water): 59.0% | Residual ratio of β cryptoxanthin Storage for one month (%) ([3]; Example, β cryptoxanthin 0.0031 parts by mass (paste) in water): 84.8% | Residual ratio of β cryptoxanthin Storage for one month (%) ([3]; Example, β cryptoxanthin 0.0044 parts by mass (paste) in water): 87.8% | Residual ratio of β cryptoxanthin Storage for one month (%) ([3]; Example, β cryptoxanthin 0.0062 parts by mass (paste) in water): 97.0% | Residual ratio of β cryptoxanthin Storage for one month (%) ([3]; Example, β cryptoxanthin 0.0086 parts by mass (paste) in water): 95.3% | Residual ratio of β cryptoxanthin Storage for one month (%) ([3]; Example, β cryptoxanthin 0.0176 parts by mass (paste) in water): 93.2% | Residual ratio of β cryptoxanthin Storage for one month (%) ([3]; Example, β cryptoxanthin 0.0244 parts by mass (paste) in water): 105.9% | storage in a stable state at normal temperature ([4]; Example 4B, normal temperature (20° C. to 25° C.)): two years or more | possible storage period in a stable state ([4]; 20° C.): about 32.7 months | possible storage period in a stable state ([4]; 25° C.): about 15.6 months | Residual ratio of β cryptoxanthin Storage for two months (%) ([5]; additive L-ascorbic acid 0.005 parts by mass): 62.5% | Residual ratio of β cryptoxanthin Storage for two months (%) ([5]; additive L-ascorbic acid 0.01 parts by mass): 75.5% | Residual ratio of β cryptoxanthin Storage for two months (%) ([5]; additive L-ascorbic acid 0.02 parts by mass): 92.0% | Residual ratio of β cryptoxanthin Storage for two months (%) ([5]; additive L-ascorbic acid 0.1 parts by mass): 100% | Residual ratio of β cryptoxanthin Storage for two months (%) ([5]; additive L-ascorbic acid 0.2 parts by mass): 31.9%
